Patent publication US20080279769A1, “Enzyme Inhibitor Imaging Agents” (priority 2004, published 2008)

Experiments:
[1] = test system: Lewis Lung [LLC] Carcinoma Tumour model; assay: Biodistribution in animal tumour model of MMP expression; assay type: in vivo; settings: for % ID/g Tumour: 15 days tumour growth
Excerpt: The in vivo Lewis Lung [LLC] Carcinoma Tumour model has been used for screening of MMP is due to reproducible up-regulation of several MMPs in the tumour. As such, this model provides a good assessment of the efficacy of the MMP is for in vivo targeting of lesions that express MMPs. Literature reports have shown that LLC cells express pro and active MMP-2 and pro NMP-9 and LLC tumours MMP-2 and MMP-9 (not classified as pro or active) [Bae et al Drugs Exp Clin Res. 29(1):15-23 (2003)].

ApoE ligation model = assay: Biodistribution in ApoE ligated animal model of MMP expression; assay type: in vivo, mice; settings: for Carotid: Blood / Carotid: Heart: ratio
Excerpt: The ApoE ligation model was also studied. ApoE mice are transgenic knock-out mice, which lack the ApoE gene, and are therefore unable to regulate their plasma cholesterol levels. As a consequence ApoE mice develop atherosclerotic lesions, a process which is accelerated with feeding of high fat diet. Further acceleration of lesion development can be achieved by ligating the carotid artery, resulting in advanced lesion formation within 4 weeks of surgery and high fat diet feeding. […] 105, 2686-2691 (2002)].

MMP-1 = target: T1, MMP-1 (Homo sapiens, UniProt P03956); assay: In vitro metalloproteinase inhibition assay (colorimetric, thiopeptolide substrate), MMP-1; assay type: biochemical
T1 sequence (P03956 100-469): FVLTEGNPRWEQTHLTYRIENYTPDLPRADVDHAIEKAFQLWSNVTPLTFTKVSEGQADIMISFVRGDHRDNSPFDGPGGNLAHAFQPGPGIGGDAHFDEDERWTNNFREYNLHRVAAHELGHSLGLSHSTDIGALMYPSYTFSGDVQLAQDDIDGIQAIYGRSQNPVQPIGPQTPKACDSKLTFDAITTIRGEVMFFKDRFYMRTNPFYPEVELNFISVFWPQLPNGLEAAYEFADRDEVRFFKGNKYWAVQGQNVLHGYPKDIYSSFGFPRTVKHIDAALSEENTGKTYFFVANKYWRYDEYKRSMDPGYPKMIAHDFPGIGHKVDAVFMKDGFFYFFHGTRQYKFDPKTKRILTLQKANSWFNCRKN
Experimental: [The source words this procedure for another target and reports this target under the same test.] (§1) Compounds were screened using the following commercially available Biomol assay kits:
(§2) MMP-2 colorimetric assay kit-Catalogue number AK-408, MMP-9 colorimetric assay kit-Catalogue number AK-410, MMP-12 colorimetric assay kit-Catalogue number AK-402, Which are available from Affiniti Research Products Ltd. (Palatine House, Matford Court, Exeter, EX2 8NL, UK).
(§3) Inhibitors were provided in powdered form, and stored at 4° C. For each inhibitor a 1 mM stock solution in DMSO was prepared, dispensed into 20 μl aliquots and these aliquots stored at −20° C. The stock solution was diluted to give 8 inhibitor concentrations (recommended: 50 μM, 5 μM, 500 mM, 50 mM, 5 nM, 500 μM, 50 μM and 5 μM). Dilutions were made in the kit assay buffer. A five-fold dilution of the inhibitor stocks is made on addition to the assay wells, therefore final concentration range was from 10 μM to 1 pM.
(§4) Details are provided with the commercial kit, but can be summarised as follows: • Prepare test compound dilutions as above, • Add assay buffer to plate, • Add test compounds to plate • Prepare standard kit inhibitor NNGH (see kit for dilution factor) • Add NNGH to control inhibitor wells • Prepare MMP enzyme (see kit for dilution factor) • Add MMP to plate • Incubate plate at 37° C. for ˜15 min • Prepare thiopeptolide substrate (see kit for dilution factor) • Add substrate to plate • Count every 2 min for 1 hr, 37° C., 414 nm on a Labsystems iEMS plate reader.

MMP-2 = MMP-2 (Homo sapiens, UniProt P08253); assay: In vitro metalloproteinase inhibition assay (Biomol MMP-2 colorimetric assay kit); assay type: biochemical
Experimental: as §1
as §3, with “The stock solution was diluted to give 8 inhibitor concentrations (recommended: 50 μM, 5 μM, 500 mM, 50 mM, 5 nM, 500 μM, 50 μM and 5 μM).” left out

MMP-9 = MMP-9 (Homo sapiens, UniProt P14780); assay: In vitro metalloproteinase inhibition assay (Biomol MMP-9 colorimetric assay kit); assay type: biochemical
Experimental: as §1
as §3, with “The stock solution was diluted to give 8 inhibitor concentrations (recommended: 50 μM, 5 μM, 500 mM, 50 mM, 5 nM, 500 μM, 50 μM and 5 μM).” left out

MMP-12 = MMP-12 (Homo sapiens, UniProt P39900); assay: In vitro metalloproteinase inhibition assay (Biomol MMP-12 colorimetric assay kit); assay type: biochemical
Experimental: as §1, §2, §3, §4

MMP-8 = MMP-8 (Homo sapiens, UniProt P22894); assay: In vitro metalloproteinase inhibition assay (colorimetric, thiopeptolide substrate), MMP-8; assay type: biochemical
Experimental: [The source words this procedure for another target and reports this target under the same test.] as §1, §2
as §3, with “A five-fold dilution of the inhibitor stocks is made on addition to the assay wells, therefore final concentration range was from 10 μM to 1 pM.” left out
as §4

[2] = between 5 and 120 minutes post injection

MMP-12, sequence (P39900 106-263 limits assumed): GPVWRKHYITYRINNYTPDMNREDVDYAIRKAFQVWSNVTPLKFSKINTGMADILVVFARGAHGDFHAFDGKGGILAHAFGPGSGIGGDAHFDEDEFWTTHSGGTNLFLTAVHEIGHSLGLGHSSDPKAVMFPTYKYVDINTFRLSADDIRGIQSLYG
MMP-9, sequence (P14780 107-444 limits assumed): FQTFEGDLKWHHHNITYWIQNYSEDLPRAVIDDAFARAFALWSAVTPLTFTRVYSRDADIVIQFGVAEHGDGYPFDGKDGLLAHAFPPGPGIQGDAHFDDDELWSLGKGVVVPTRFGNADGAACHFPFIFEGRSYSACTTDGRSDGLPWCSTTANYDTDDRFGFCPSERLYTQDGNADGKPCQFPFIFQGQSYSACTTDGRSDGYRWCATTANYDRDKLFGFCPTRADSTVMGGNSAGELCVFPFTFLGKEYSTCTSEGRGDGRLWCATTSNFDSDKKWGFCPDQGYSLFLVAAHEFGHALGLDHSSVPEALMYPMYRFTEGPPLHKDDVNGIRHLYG
MMP-2, sequence (P08253 110-446 limits assumed): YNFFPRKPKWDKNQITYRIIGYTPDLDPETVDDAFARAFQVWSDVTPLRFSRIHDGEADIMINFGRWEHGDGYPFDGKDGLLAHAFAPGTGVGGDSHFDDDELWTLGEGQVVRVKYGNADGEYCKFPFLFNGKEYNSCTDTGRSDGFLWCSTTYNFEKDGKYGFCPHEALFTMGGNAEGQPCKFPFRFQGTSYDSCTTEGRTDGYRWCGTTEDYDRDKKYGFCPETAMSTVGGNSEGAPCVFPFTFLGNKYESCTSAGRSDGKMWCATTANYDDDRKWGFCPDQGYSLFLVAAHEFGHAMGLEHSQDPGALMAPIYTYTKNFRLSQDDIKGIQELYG
MMP-8, sequence (P22894 101-467): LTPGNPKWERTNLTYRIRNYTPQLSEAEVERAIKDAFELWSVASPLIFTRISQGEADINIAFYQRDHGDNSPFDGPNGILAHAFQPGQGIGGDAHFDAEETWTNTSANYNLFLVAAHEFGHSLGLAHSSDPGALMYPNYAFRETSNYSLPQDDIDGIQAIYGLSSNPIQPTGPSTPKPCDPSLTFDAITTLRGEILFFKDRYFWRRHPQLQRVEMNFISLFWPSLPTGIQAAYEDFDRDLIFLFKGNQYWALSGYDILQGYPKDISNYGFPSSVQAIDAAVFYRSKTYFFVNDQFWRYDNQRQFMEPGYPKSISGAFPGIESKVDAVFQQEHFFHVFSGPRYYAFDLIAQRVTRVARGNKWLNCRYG

## CNC(=O)[C@H](Cc1ccc([123I])cc1)NC(=O)C[C@@H](CC(C)C)C(=O)NO [Compound 2A]
[1]; 5 min post injection
  % ID GI Excretion: 17.81 % ID
  % ID Heart: 0.86 % ID
  % ID Liver: 29.76 % ID
  % ID Lung: 1.38 % ID
  % ID Urinary Excretion: 19.85 % ID
  % ID/g Blood: 5.89 % ID/g
  % ID/g Tumour: 1.39 % ID/g
[1]; 30 min post injection
  % ID GI Excretion: 28.46 % ID
  % ID Heart: 0.57 % ID
  % ID Liver: 24.43 % ID
  % ID Lung: 0.73 % ID
  % ID Urinary Excretion: 22.52 % ID
  % ID/g Blood: 2.19 % ID/g
  % Retained Tumour: 78%
  % ID/g Tumour: 1.08 % ID/g
[1]; 60 min post injection
  % ID GI Excretion: 29.5 % ID
  % ID Heart: 0.56 % ID
  % ID Liver: 20.04 % ID
  % ID Lung: 0.59 % ID
  % ID Urinary Excretion: 27.7 % ID
  % ID/g Blood: 1.49 % ID/g
  % Retained Tumour: 87%
  % ID/g Tumour: 1.21 % ID/g
[1]; 120 min post injection
  % ID GI Excretion: 34.42 % ID
  % ID Heart: 0.49 % ID
  % ID Liver: 13.45 % ID
  % ID Lung: 0.45 % ID
  % ID Urinary Excretion: 31.03 % ID
  % ID/g Blood: 1.38 % ID/g
  % Retained Tumour: 97%
  % ID/g Tumour: 1.35 % ID/g
[1]; between 5 and 120 minutes p.i.
  clearance from normal tissues [e.g. blood and other background tissues]: occurred between 5 and 120 minutes p.i.
[1]; [2]
  tumour uptake and retention: exhibited tumour uptake and retention
ApoE ligation model; 5 min post injection
  % ID/g Blood: 6.5 % ID/g
  % ID/g Carotid: 3.3 % ID/g
  % ID/g Heart: 5.5 % ID/g
  Carotid: Blood: 0.5
  Carotid: Heart: 0.8
ApoE ligation model; 120 min post injection
  % ID/g Blood: 1.5 % ID/g
  % ID/g Carotid: 2.7 % ID/g
  % ID/g Heart: 3.6 % ID/g
  % Retained Carotid: 83%
  Carotid: Blood: 1.8
  Carotid: Heart: 0.8
ApoE ligation model; 360 min post injection
  % ID/g Blood: 1.6 % ID/g
  % ID/g Carotid: 1.6 % ID/g
  % ID/g Heart: 1.5 % ID/g
  % Retained Carotid: 47%
  Carotid: Blood: 1.0
  Carotid: Heart: 1.0
ApoE ligation model; [2]
  carotid uptake and retention: exhibited carotid uptake and retention
ApoE ligation model; mouse, in vivo
  carotid to blood ratios: good
  clearance from normal tissues [e.g. blood and other background tissues]: significant

## CNC(=O)[C@H](Cc1ccc(I)cc1)NC(=O)[C@@H](CC(=O)NO)CC(C)C [Compound 3]
MMP-1
  Ki: 1.77 nM
MMP-2
  Ki: 0.2 ± 0.11 nM
MMP-9
  Ki: 0.11 ± 0.08 nM
MMP-12
  Ki: 0.4 ± 0.04 nM

## CC(C)C[C@H](CC(=O)N[C@@H](Cc1c[nH]c2ccccc12)C(=O)NCc1ccc([123I])cc1)C(=O)NO [Compound 6A]
ApoE ligation model; 5 min post injection
  % ID/g Blood: 9.9 % ID/g
  % ID/g Carotid: 3.9 % ID/g
  % ID/g Heart: 9.8 % ID/g
  Carotid: Blood: 0.3
  Carotid: Heart: 0.4
ApoE ligation model; 60 min post injection
  % ID/g Blood: 3.2 % ID/g
  % ID/g Carotid: 1.4 % ID/g
  % ID/g Heart: 2.2 % ID/g
  % Retained Carotid: 36%
  Carotid: Blood: 0.6
  Carotid: Heart: 0.7
ApoE ligation model; 120 min post injection
  % ID/g Blood: 2.5 % ID/g
  % ID/g Carotid: 1.4 % ID/g
  % ID/g Heart: 1.5 % ID/g
  % Retained Carotid: 37%
  Carotid: Blood: 0.6
  Carotid: Heart: 1.0

## CC(C)C[C@H](CC(=O)NO)C(=O)N[C@@H](Cc1c[nH]c2ccccc12)C(=O)NCc1ccc(I)cc1 [Compound 7]
MMP-1
  Ki: 1.57 ± 2.37 nM

## CNC(=O)C(CCC(=O)NCCOCCOCCOCCOCCOCCOCCOCCOCCOCCOCCOCCOCCC(=O)NCc1ccc(I)cc1)NC(=O)CC(CC(C)C)C(=O)NO (stereo not shown) [Compound 10]
MMP-1
  Ki: 23.9 nM
MMP-2
  Ki: 8.8 ± 3.1 nM
MMP-9
  Ki: 2.85 ± 3.5 nM
MMP-12
  Ki: 4.7 nM

## CNC(=O)C(CCC(=O)NCCOCCOCCOCCOCCOCCOCCOCCOCCOCCOCCOCCOCCC(=O)NCc1ccc(I)cc1)NC(=O)C(CC(=O)NO)CC(C)C (stereo not shown) [Compound 12]
MMP-1
  Ki: 28.5 nM
MMP-2
  Ki: 21 ± 2.2 nM
MMP-9
  Ki: 7.15 ± 3.32 nM
MMP-12
  Ki: 8.3 nM

## CC(C)CC(CC(=O)NC(Cc1c[nH]c2ccccc12)C(=O)NCCOCCOCCOCCOCCOCCOCCOCCOCCOCCOCCOCCOCCC(=O)NCc1ccc(I)cc1)C(=O)NO (stereo not shown) [Compound 14]
MMP-1
  Ki: 2.68 ± 0.19 nM
MMP-2
  Ki: 0.21 ± 0.05 nM
MMP-8
  Ki: 0.082 nM
MMP-9
  Ki: 0.04 ± 0.03 nM
MMP-12
  Ki: 0.51 nM

## CC(C)CC(CC(=O)NO)C(=O)NC(Cc1c[nH]c2ccccc12)C(=O)NCCOCCOCCOCCOCCOCCOCCOCCOCCOCCOCCOCCOCCC(=O)NCc1ccc(I)cc1 (stereo not shown) [Compound 16]
MMP-1
  Ki: 18 ± 1.69 nM
MMP-2
  Ki: 0.61 ± 0.16 nM
MMP-9
  Ki: 0.5 ± 0.42 nM
MMP-12
  Ki: 0.4 ± 0.09 nM

## CC(C)C[C@H](CC(=O)N[C@@H](C)C(=O)NCc1ccc([123I])cc1)C(=O)NO [Compound 18A]
ApoE ligation model; 5 min post injection
  % ID/g Blood: 7.3 % ID/g
  % ID/g Carotid: 2.9 % ID/g
  % ID/g Heart: 10.1 % ID/g
  Carotid: Blood: 0.5
  Carotid: Heart: 0.3
ApoE ligation model; 120 min post injection
  % ID/g Blood: 2.4 % ID/g
  % ID/g Carotid: 1.0 % ID/g
  % ID/g Heart: 2.6 % ID/g
  % Retained Carotid: 34%
  Carotid: Blood: 0.4
  Carotid: Heart: 0.4
ApoE ligation model; 360 min post injection
  % ID/g Blood: 1.2 % ID/g
  % ID/g Carotid: 0.8 % ID/g
  % ID/g Heart: 1.0 % ID/g
  % Retained Carotid: 26%
  Carotid: Blood: 0.7
  Carotid: Heart: 0.8
